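Dose response: 5 concentrations. Exposure: 48 h. Format: 96-well plates. Endpoint: linear interpolation; highest concentration if not reached. Abbreviation: GI50, concentration required for 50% inhibition of growth. TGI is the concentration that stops growth completely.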
Experiments:
Experiment in all cases: inhibition of tumour cell growth, NCI panel, 48 h
[1] = tested on: A498 renal
[2] = tested on: CCRF-CEM leukemia
[3] = tested on: EKVX NSCLC
[4] = tested on: HL-60(TB) leukemia
[5] = tested on: LOX IMVI melanoma
[6] = tested on: NCI-H460 lung
[7] = tested on: U251 CNS
[8] = tested on: NCI-H226 lung
[9] = tested on: SR leukemia
[10] = tested on: MDA-MB-231 breast

| Structure (SMILES) | TGI [1] | TGI [2] | TGI [3] | TGI [4] | TGI [5] | TGI [6] | TGI [7] | TGI [8] | TGI [9] | GI50 [1] | GI50 [2] | GI50 [3] | GI50 [5] | GI50 [10] | TGI [10] | GI50 [8] | GI50 [6] | GI50 [9] | GI50 [7] | GI50 [4] |
| --- | --- | --- | --- | --- | --- | --- | --- | --- | --- | --- | --- | --- | --- | --- | --- | --- | --- | --- | --- | --- |
| S=c1o[nH]c(-c2ccccc2)c1C=Nc1ccccc1 | > 100 µM | > 100 µM | > 100 µM | > 100 µM | > 100 µM | > 100 µM | > 100 µM | – | – | – | – | – | – | – | – | – | – | – | – | – |
| Cn1c(=O)nc2n(-c3ccc(Cl)cc3)c(-c3ccccc3)c(-c3ccccc3)nc-2c1=O | > 100 µM | 77.1 µM | > 100 µM | 58.6 µM | – | 62.5 µM | > 100 µM | 58.8 µM | – | – | – | – | – | – | – | – | – | – | – | – |
| O=c1c2ccccc2[nH]c2c(O)ccc(O)c12 | 96 µM | > 88.6 µM | > 62.1 µM | 10.2 µM | 33.9 µM | 50.9 µM | 21.6 µM | 66.4 µM | 39.2 µM | – | – | – | – | – | – | – | – | – | – | – |
| Nc1ccccc1C#C/C=C\C#CC#C/C=C\C#Cc1ccccc1N | 20.6 µM | 16 µM | 28.4 µM | – | 11.6 µM | 25.6 µM | 22.2 µM | 27.2 µM | 7 µM | 5.36 µM | 0.0892 µM | 7.84 µM | 1.75 µM | 1.54 µM | 14.8 µM | 3.56 µM | 8.32 µM | 1.42 µM | 5.61 µM | – |
| O=C1/C(=C/c2ccc3c(c2)OCCO3)CCC/C1=C\c1ccc2c(c1)OCCO2 | 62.1 µM | > 100 µM | > 100 µM | 56.9 µM | > 100 µM | 65.6 µM | 36.7 µM | – | 85.8 µM | – | – | – | – | – | – | – | – | – | – | – |
| CN(C)CCC(/C=C/c1ccccc1)=N\Nc1ccc(Cl)c(Cl)c1 | 13.8 µM | 10.1 µM | 13.1 µM | 7.31 µM | 3.71 µM | 4.25 µM | 13.6 µM | – | 5.34 µM | – | – | – | – | – | – | – | – | – | – | – |
| N#CC1=C(N)NC(=S)NC1c1ccc(-c2ccc(-c3nc4ccccc4o3)cc2)s1 (stereo not given) | – | – | 48.2 µM | > 50 µM | 21.4 µM | 15.9 µM | 14.4 µM | – | – | – | – | 14 µM | 9.58 µM | 7.16 µM | 16.4 µM | – | 7.58 µM | – | 7.73 µM | 24.1 µM |
| Cc1ccccc1NC(=O)/C=N/O | > 100 µM | – | 39.6 µM | 48.5 µM | > 100 µM | – | > 100 µM | > 100 µM | > 100 µM | – | – | – | – | – | – | – | – | – | – | – |
| COC(=O)c1cccc2c3ccccc3c3ccccc3c12 | 50 µM | 72.8 µM | > 100 µM | 58.1 µM | 81 µM | – | 73.6 µM | > 100 µM | 87.7 µM | – | – | – | – | – | – | – | – | – | – | – |
| [N-]=[N+]=NCCCn1c2c(c3ccc([N+](=O)[O-])cc3c1=O)C(=O)c1cc3c(cc1-2)OCO3 | – | 0.0679 µM | 3.62 µM | > 100 µM | 1.02 µM | 0.501 µM | 1.04 µM | 2.34 µM | < 0.01 µM | – | < 0.01 µM | 0.379 µM | < 0.01 µM | 0.828 µM | 12.3 µM | < 0.01 µM | < 0.01 µM | < 0.01 µM | < 0.0174 µM | < 0.0281 µM |
| Cc1cccc(C)c1NC(=O)CCC/C(CC(=O)c1ccc(F)cc1)=N\NC(=O)C(=O)NN | > 100 µM | > 100 µM | > 100 µM | > 100 µM | > 100 µM | > 100 µM | > 100 µM | > 100 µM | – | – | – | – | – | – | – | – | – | – | – | – |
| CC1=C(C(=O)NCc2ccccc2)C(c2ccc(Cl)c(Cl)c2)C(C(=O)NCc2ccccc2)=C(C)N1 | > 100 µM | > 100 µM | > 100 µM | > 100 µM | > 100 µM | > 100 µM | > 100 µM | > 100 µM | > 100 µM | – | – | – | – | – | – | – | – | – | – | – |
| Nc1nonc1-c1nc2ccccc2n1Cc1ccc(F)cc1 | > 100 µM | – | – | – | > 100 µM | > 100 µM | > 100 µM | > 100 µM | > 100 µM | 2.2 µM | – | – | 6.48 µM | 6.84 µM | > 100 µM | > 100 µM | 4.25 µM | 4.89 µM | 7.48 µM | – |
| Cc1ccc(S(=O)(=O)NC(=O)NCCc2ccccc2)cc1 | > 100 µM | > 100 µM | > 100 µM | > 100 µM | > 100 µM | > 100 µM | > 100 µM | > 100 µM | – | – | – | – | – | – | – | – | – | – | – | – |
| CCCCCCCCOCC(O)CO (stereo not given) | > 100 µM | 65 µM | > 100 µM | > 100 µM | > 100 µM | > 100 µM | > 100 µM | > 100 µM | > 100 µM | – | – | – | – | – | – | – | – | – | – | – |
| Nc1ccc(-c2cc(C(=O)Nc3nccs3)[nH]c(=S)n2)cc1 | > 100 µM | > 100 µM | > 100 µM | – | > 100 µM | – | > 100 µM | > 100 µM | – | – | – | – | – | – | – | – | – | – | – | – |
| CCOC(=O)C(=O)Nc1cc(Cl)c(Cl)cc1Cl | – | – | > 100 µM | – | > 100 µM | > 100 µM | > 100 µM | > 100 µM | – | – | – | – | – | – | – | – | – | – | – | – |
| Cc1c(Cl)c(=O)oc2cc(OC/C=C3\CCC(=O)O3)ccc12 | 75.3 µM | 61.3 µM | > 100 µM | – | 29.7 µM | > 100 µM | 33.3 µM | > 100 µM | – | 21.1 µM | 12.5 µM | 29.9 µM | 15.6 µM | 16.8 µM | 33.2 µM | 34.6 µM | 26.9 µM | – | 16.8 µM | – |
| O=C(O)[C@@H]1OCCOCCO[C@@H](C(=O)O)[C@H](C(=O)O)OCCOCCO[C@H]1C(=O)O | > 100 µM | > 73.6 µM | > 100 µM | 38.4 µM | > 100 µM | > 100 µM | > 86.9 µM | > 100 µM | 40 µM | – | – | – | – | – | – | – | – | – | – | – |
| C1OC1CN1CCN(CC2CO2)CC1 (stereo not given) | > 100 µM | > 100 µM | > 100 µM | > 88.7 µM | > 100 µM | > 100 µM | > 100 µM | > 100 µM | 23.3 µM | – | – | – | – | – | – | – | – | – | – | – |
| O=C1CC(c2c(-c3ccccc3)[nH]c3ccccc23)C(=O)N1c1ccccc1 (stereo not given) | > 100 µM | > 100 µM | > 100 µM | > 100 µM | – | > 100 µM | > 100 µM | > 100 µM | – | – | – | – | – | – | – | – | – | – | – | – |
| CCC/C=C\C=C\C1(NS(=O)(=O)c2ccc(C)cc2)CCC(C(C)(C)C)CC1 (stereo not given) | 46.4 µM | 24.2 µM | 62.6 µM | 23.2 µM | – | 36.2 µM | 25.9 µM | 38 µM | 14.8 µM | – | – | – | – | – | – | – | – | – | – | – |
